Experimental data published in patent US4351822A, “Quantitative testing for vitamin B12” (University Patents, Inc., priority 1979, dated 1982).

Experiments:
[1] = biological target: T1, Human R protein (Human R) (Homo sapiens, UniProt P20061); assay: Radioisotope dilution (RID) radiobinding assay for vitamin B12, Human R binder; format: binding; details: 500 pg added to human serum in the dark, 15 min incubation, standard extraction
T1 construct: from tissue; host or cells: human saliva
T1 sequence (P20061 24-433): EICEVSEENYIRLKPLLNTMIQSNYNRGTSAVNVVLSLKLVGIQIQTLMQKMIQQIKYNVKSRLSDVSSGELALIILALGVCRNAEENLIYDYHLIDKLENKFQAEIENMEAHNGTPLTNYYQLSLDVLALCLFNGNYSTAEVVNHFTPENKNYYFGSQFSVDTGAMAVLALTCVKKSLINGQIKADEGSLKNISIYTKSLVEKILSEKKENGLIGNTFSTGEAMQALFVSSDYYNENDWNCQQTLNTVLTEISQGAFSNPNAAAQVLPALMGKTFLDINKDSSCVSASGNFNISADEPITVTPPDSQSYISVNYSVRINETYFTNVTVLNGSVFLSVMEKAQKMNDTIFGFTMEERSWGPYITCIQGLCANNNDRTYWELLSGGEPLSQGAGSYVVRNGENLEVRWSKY
Experimental: (§1) Each of the RID assays referred to herein utilized the components referred to above. That is, components A, B, C, etc. or the buffer, albumin, and salt, respectively, etc. were added in the order, from left to right, shown in Table 1.
(§2) After the addition of ^57 Co-B12 the components are mixed thoroughly to mix both the naturally occurring B12 and the radioisotope B12 to make them compete and equally available to react with the binder. After the addition of the binder, H, the components were again mixed thoroughly, and then incubated for 45 minutes at about 37° C. Charcoal was then added to the incubated mixture and the components again mixed thoroughly and incubated for another 5 minutes at room temperature. This was followed by centrifuging at 2000×g at 4° C. for 30 minutes. Then 1000 ul of the resulting supernatant liquid is pipetetted from the sample and a determination of the amount of ^57 Co-B12 present is made. The amount of ^57 Co-B12 is indicative of the amount of natural B12 in the tested sample, with lesser amounts of ^57 Co-B12 being indicative of greater amounts of natural vitamin B12 in the sample.
(§3) (1) The values in tubes 3 and 4, the "blank" tubes without binder are averaged and subtracted from all other tubes starting with tube 5.
(§4) (2) The background radiation is subtracted from tubes 1 and 2 and these values are averaged.
(§5) (3) Tubes 5 and 6 are averaged. This value should be at least 15% below the average value for tubes 1 and 2 to insure that all of the binder is saturated in the presence of (^57 Co) B12 alone.
(§6) (4) Values for each tube beginning with tube 7 are divided by the average of tubes 5 and 6 to give values for "% trace binding."
(§7) (5) Percent trace binding for tubes 7-14 are used to obtain a standard curve. We plot % trace binding on the ordinate of logit-log paper versus pg vitamin B12 on the log scale.
(§8) (6) The amount of vitamin B12 in unknown samples is determined by interpolation from the standard curve or data of % trace binding versus pg vitamin B12. […]

[2] = biological target: Human intrinsic factor (Human IF) (Homo sapiens, UniProt P27352); assay: Radioisotope dilution (RID) radiobinding assay for vitamin B12, Human IF binder; format: binding; details: 500 pg added to human serum in the dark, 15 min incubation, standard extraction
Experimental: as §1, §2, §3, §4, §5, §6, §7, §8

Sequence of Human intrinsic factor (Human IF) (P27352 19-417): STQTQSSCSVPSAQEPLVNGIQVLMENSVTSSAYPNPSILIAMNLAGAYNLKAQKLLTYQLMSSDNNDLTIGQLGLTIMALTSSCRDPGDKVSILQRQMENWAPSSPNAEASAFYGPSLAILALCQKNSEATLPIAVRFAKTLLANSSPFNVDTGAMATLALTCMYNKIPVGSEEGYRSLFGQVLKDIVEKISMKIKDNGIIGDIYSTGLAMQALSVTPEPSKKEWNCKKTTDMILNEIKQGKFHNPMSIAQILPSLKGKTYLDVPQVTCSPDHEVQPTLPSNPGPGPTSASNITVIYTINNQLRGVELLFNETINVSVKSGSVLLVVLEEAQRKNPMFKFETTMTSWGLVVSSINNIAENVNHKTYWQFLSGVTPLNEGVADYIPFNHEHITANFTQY

increase in the apparent amount of vitamin B12, RID with human R protein [1]	increase in the apparent amount of vitamin B12, RID with human IF protein [2]	Compound
about 500 pg	about 500 pg	C/C1=C2/[N-][C@H]([C@H](CC(N)=O)[C@@]2(C)CCC(=O)NC[C@@H](C)OP(=O)([O-])O[C@H]2[C@@H](O)[C@@H](n3cnc4cc(C)c(C)cc43)O[C@@H]2CO)[C@]2(C)N=C(/C(C)=C3N=C(/C=C4N=C1[C@@H](CCC(N)=O)C\4(C)C)[C@@H](CCC(N)=O)[C@]\3(C)CC(N)=O)[C@@H](CCC(N)=O)[C@]2(C)CC(N)=O.[Co+3].[OH-] [OH-B12]
about 500 pg	about 500 pg	C/C1=C2/[N-]C([C@H](CC(N)=O)[C@@]2(C)CCC(=O)NC[C@@H](C)OP(=O)([O-])O[C@H]2[C@@H](O)[C@@H](n3cnc4cc(C)c(C)cc43)O[C@@H]2CO)[C@]2(C)N=C(/C(C)=C3N=C(/C=C4N=C1[C@@H](CCC(N)=O)C\4(C)C)[C@@H](CCC(N)=O)[C@]\3(C)CC(N)=O)[C@@H](CCC(N)=O)[C@]2(C)CC(N)=O.[CH2-][C@H]1O[C@@H](n2cnc3c(N)ncnc32)[C@@H](O)[C@@H]1O.[Co+3] [adenosyl-B12]
about 500 pg	about 500 pg	CH3 -B12
